The source of these data is patent US20230357320A1, “HELICAL STAPLED PEPTIDES AND USES THEREOF” (FOG PHARMACEUTICALS, INC., priority 2020, published 2023).

Converted amounts (≈) assume the structure as drawn. Like-named read-outs stand apart in the source and are kept apart here. Starred links: 1 amine or outer side, 2 acyl side, 3 side chain; linkers in the order of their positions; H or OH if unused. Positions of bridges follow the written chain, without caps; N, C: chain ends. Non-standard residues stand in square brackets, D forms with d. Residues, ends and D or L forms follow the SMILES beside them. Primed or numbered codes have the meaning given here. *: point of attachment. PL3 = (R)-N-acetyl-2-(2'-propenyl)proline (alpha-allyl proline), stapling residue, C=CC[C@@]1(C(=O)*)CCCN1C(C)=O; PL3″ = (R)-2-(2'-propenyl)proline (alpha-allyl proline), N-acetylated, C=CC[C@@]1(C(=O)*)CCCN1C(C)=O; FITC = O=C1OC2(c3ccc(O)cc3Oc3cc(O)ccc32)c2ccc(NC(=S)*)cc21; X1 = O=C([C@]1(CC=[*:3])CCCN1[*:1])[*:2]; S5 = C=CCCC[C@](C)(N)C(=O)O; Nle = CCCC[C@H](N)C(=O)O; βAla = NCCC(=O)O

The target in one data set is T1, ERβ LBD (Homo sapiens, UniProt Q92731).
T1 construct: pET28a+ vector containing ERβ LBD (residues from 261 to 500) along with an N-terminal His6-yBBr-TEV tag; His6 (N); yBBr (N); TEV cleavage site (N); made in house; host or cells: E. coli BL21(DE3) pLysS
Put plainly: Competition fluorescence polarization (FP) binding assay with FITC-ERL4 probe. Here is the method: In addition to the PAMPA assay, to study the affinity of the first-generation ProLock™ stapled peptides to the Estrogen receptor p ligand-binding domain (ERβ LBD), a fluorescence polarization (FP) binding assay in competition format was used in the presence of the endogenous ERβ LBD ligand estradiol. Competition Fluorescence Polarization (FP) assay was performed on the peptides to determine their half-maximal effective concentration (EC50). To do this, FITC labeled ERL4 peptide (FITC-βAla-His-Pro-Leu-Leu-Nle-Arg-Leu-Leu-Leu-Ser-Pro-CONH2) was synthesized to be used as a fluorescence probe based on existing literature (Fuchs et al., Journal of the American Chemical Society 2013, 135 (11), 4364-4371). Direct FP was performed in black 384-well plates (Corning). The final volume of each assay well was 40 μL with constant concentration of FITC labeled ERL4 peptide (10 nM) and variable concentrations of ERβ LBD protein.
ERβ LBD expression and purification was performed as follows. BL21(DE3) pLysS E. coli cells were transformed with a pET28a+ vector containing ERβ LBD (residues from 261 to 500) along with an N-terminal His6-yBBr-TEV tag. An overnight culture in 10 mL of TB media containing 50 μg/mL kanamycin was prepared from a single bacterial colony. The overnight culture was subsequently added to 1 liter of autoclaved TB media containing 50 μg/mL kanamycin and shaken at 37° C. until an OD of 0.6-0.8 was reached. IPTG was added to the culture and left shaking for 6 hours. Bacterial culture was pelleted and resuspended in lysis buffer. Resuspended bacterial culture was incubated at 0° C. for 10 minutes before sonication at 65% amplitude with 10-sec cycles using a Branson Sonifier. The lysate was then cleared by centrifugation at 8000×g for 20 min. […] The expected molecular weight of the ERβ LBD protein is 30.8 KDa, which molecular weight was confirmed by SDS PAGE analysis. Purified ERβ LBD was concentrated to 90 μM and was stored at −80° C. buffer.
Competition FP assays were also employed. These were performed in black 384-well plates (Corning). The final volume of each assay well was 80 μL containing constant concentrations of estradiol (1 μM) and FITC labeled ERL4 (10 nM). The ERβ LBD concentration was held constant (200 nM) while varying the concentration of ProLock stapled peptides (3-fold dilution from 10 μM). Upon addition of samples to each well, the plate was centrifuged for 10 seconds at 3000 rpm and incubated at 4° C. for 1 hour. FP measurements were performed at room temperature with excitation and emission wavelengths at 485 and 535 nm using a Clariostar microplate reader (BMG Labtech). Each plate had high and low polarization samples, which are used to normalize the assay data. The competition FP results were analyzed by Prism 7 (GraphPad). The non-linear regression analysis of the data was used to determine the half-maximal effective concentration (EC50) of ProLock stapled peptides. […] The normalized FP values shown in FIG. 6 are mean±S.E.M of at least four independent replicates.
Background: Fluorescence polarisation rises when a labelled molecule tumbles more slowly, as on binding a larger partner.

Data set [1] is described as follows: CHI Log D measurement (chromatographic hydrophobicity index). To be noted: reverse-phase HPLC, Phenomenex Gemini C-18 column, pH 7.4.
A short description of a further data set: physchem. To be noted: pH 7.4.
The next data set is described as follows: in vitro. Details: dose or concentration left out as unconfirmed. To be noted: PAMPA, pH 7.4, PAMPA Pe. In general terms: The PAMPA barrier holds no transporters, so it reflects passive diffusion.
A short description of data set [2]: PAMPA (Parallel Artificial Membrane Permeability Assay).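 Further: Phospholipid-membrane PAMPA, donor and acceptor in DPBS pH 7.4 with 5% DMSO, 37 °C for 5 h, compound in each well quantified by reverse-phase HPLC-MS.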 Details: Papp at 5 h: dose or concentration left out as unconfirmed.
Data set [3] deals with T2, Estrogen receptor β ligand-binding domain (ERβ LBD), residues 261 to 500, with N-terminal His6-yBBr-TEV tag (UniProt Q92731 261-500).
T2 construct: range 261-500; Expressed in E. coli BL21(DE3) pLysS from pET28a+, purified by Ni-NTA and SEC; Assays were run in the presence of estradiol; also called ER LBD; not shown: N-terminal His6-yBBr-TEV tag
T2 sequence (Q92731 261-500): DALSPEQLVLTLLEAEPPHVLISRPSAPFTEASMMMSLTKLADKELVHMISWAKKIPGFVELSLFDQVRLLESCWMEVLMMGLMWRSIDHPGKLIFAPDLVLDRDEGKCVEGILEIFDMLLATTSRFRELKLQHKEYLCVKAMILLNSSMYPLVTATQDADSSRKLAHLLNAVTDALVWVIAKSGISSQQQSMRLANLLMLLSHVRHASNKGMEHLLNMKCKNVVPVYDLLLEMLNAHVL
Nature of the data set: direct fluorescence polarization; 10 nM probe, ERβ LBD titrated from 5 µM with estradiol; 1:1 binding model with Hill slope.

For data set [4], the target named is T2, Estrogen receptor β ligand-binding …. Put plainly: competition fluorescence polarization; 200 nM ERβ LBD, 10 nM FITC-ERL4 probe, 1 µM estradiol.

The EC50 is the midpoint of the concentration-response curve. A word on the chromatographic logD: it is a lipophilicity value derived from retention on a column. What is called solubility is how much of the substance goes into solution per volume. What is called Papp is the rate of passage across a membrane or cell layer, normalised by area and donor concentration. As for `CNC(=O)[C@H](Cc1ccc(O)cc1)NC(=O)[C@@H](NC(=O)[C@H](CC(C)C)NC(=O)[C@H](CC(C)C)NC(=O)[C@H](CC(N)=O)NC(=O)[C@]1(C)CCCC=CC[C@]2(CCCN2C(C)=O)C(=O)N[C@@H](CCCCN)C(=O)N[C@@H](CC(C)C)C(=O)N1)[C@@H](C)O` [PLL4-5, Ac-PL3-Lys-Leu-S5-Asn-Leu-Leu-Thr-Tyr-NHMe] (Ac-[X1]KL[S5]NLLTY-NHMe; staple 1-4), the “PAMPA Pe” value is listed as 0.7 ± 0.2 (×10^−6) cm/sec. In addition, the EC50 at ERβ LBD (binding towards the ERβ LBD, read-out: EC50) was found to be 3 µM. The “% Retention” value (PAMPA) is 74 ± 3%. In addition, the chromatographic logD in data set [1] is 1.8. For the same molecule, the concentration in solution in the data set “physchem” (solubility) was 880 µM (≈ 1030 µg/mL). For the same molecule, the Papp at 5 h in the data set “in vitro” was determined as 7 ± 2 nm/s.

The molecule `CNC(=O)[C@H](Cc1ccc(O)cc1)NC(=O)[C@H](Cc1c[nH]cn1)NC(=O)[C@H](CC(C)C)NC(=O)[C@H](CC(C)C)NC(=O)[C@H](CCCNC(=N)N)NC(=O)[C@]1(C)CCCC=CC[C@]2(CCCN2C(C)=O)C(=O)N[C@@H](CC(C)C)C(=O)N[C@@H](CC(C)C)C(=O)N1` [PLL4-3, Ac-PL3-Leu-Leu-S5-Arg-Leu-Leu-His-Tyr-NHMe] (Ac-[X1]LL[S5]RLLHY-NHMe; staple 1-4) showed an EC50 on ERβ LBD of 0.7 µM. In data set [1], the chromatographic logD was determined as 2.7. Besides, the Papp at 5 h in data set [2] (PAMPA, pH 7.4) was < 1 nm/s. Further, the “% Retention” value in data set [2] (Table 5, compound retained in solution at the end of the PAMPA assay compared to the input sample) amounted to 73 ± 4%.

B1: FITC labeled ERL4 peptide (FITC-βAla-His-Pro-Leu-Leu-Nle-Arg-Leu-Leu-Leu-Ser-Pro-CONH2) (peptide)
peptide: {FITC}-[βAla]HPLL[Nle]RLLLSP-NH2
notes: Fluorescent probe of the FP assays; also called FITC-ERL4; FITC-ERL4 probe
One may read the Kd as the concentration at which binding is half-saturated. In turn, B1 registered a Kd in data set [3] of 0.16 µM.

B2: PLL5-1 (Ac-PL3-Leu-Leu-S5-Tyr-Leu-Leu-Asp-Tyr-NHMe) (peptide)
peptide: Ac-[PL3″]LL[S5]YLLDY-NHMe
modifications: staple 1-4; also: staple isomer 2, cis olefin
notes: Second-generation ProLock stapled peptide; X marks non-standard residues
As for B2, the EC50 in data set [4] is 3.9 µM.

B3: PLL5-2 (Ac-PL3-Leu-Leu-S5-Tyr-Leu-Leu-Asp-Asp-NHMe) (peptide)
peptide: Ac-[PL3]LL[S5]YLLDD-NHMe
modifications: staple 1-4; also: staple isomer 2, cis olefin
notes: as for B2
On to B3, for which the EC50 in data set [4] was found to be 1.2 µM.

B4: PLL5-3 (Ac-PL3-Leu-Leu-S5-Tyr-Leu-Leu-Gln-Tyr-NHMe) (peptide)
peptide: Ac-[PL3]LL[S5]YLLQY-NHMe
modifications: staple 1-4; also: staple isomer 2, cis olefin
notes: as for B2
Molecule B4 gave an EC50 in data set [4] of 0.5 µM.

B5: PLL5-12 (Ac-PL3-Leu-Leu-S5-Tyr-Leu-Leu-Gln-NHMe) (peptide)
peptide: Ac-[PL3]LL[S5]YLLQ-NHMe
modifications: staple 1-4; also: staple isomer 2, cis olefin
notes: as for B2
Turning to B5, the EC50 in data set [4] was found to be 2 µM.
